Among the data in ChEMBL document CHEMBL1201862, “PubChem BioAssay data set” (2004) are AC50, IC50 and EC50 values, retold here.

Calls of active or inactive are those of the source. Where only a bound is given, the exact number is not on record here.

One assay relates to Cryptococcus neoformans. As to the kind of experiment: PubChem AID 686997. Format: functional, organism-based.
Another assay deals with HeLa. As to the kind of experiment: HeLa cell cytotoxicity, dose response, cytotoxicity control, ATP luminescence, cherry-pick samples (AID 687004). Format: functional, cell-based. The following applies: Homo sapiens.
A further assay concerns HepG2. Kind of assay: HepG2 Cytotoxicity Assay Measured in Cell-Based System Using Plate Reader - 7071-02_Inhibitor_Dose_CherryPick_Activity. Conditions: Homo sapiens. The format is functional.
Assay [1] has as its target Arf-GAP with SH3 domain, ANK repeat and PH domain-containing protein 1 (Homo sapiens, UniProt Q9ULH1). Format: functional.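 Note: biochemical fluorescence polarization dose–response screen measuring inhibition of ASAP1; ASAP1 GAP domain stimulating GTP hydrolysis by truncated human ARF1.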
Assay [2] addresses ATP-dependent translocase ABCB1 (Homo sapiens, UniProt P08183). As to the kind of experiment: ABCB1 efflux pump inhibitor potency, dose response, Jurkat-DNR cells, JC-1, flow cytometry (AID 1689). Format: functional.
For assay [3], the target named is Broad substrate specificity ATP-binding cassette transporter ABCG2 (Homo sapiens, UniProt Q9UNQ0). As to the kind of experiment: ABCG2 efflux pump inhibitors, dose response, Ig-MXP3 cells, flow cytometry (AID 1690). Format: functional.
The target of assay [4] is T1, Rac GTPase-activating protein 1 (Homo sapiens, UniProt Q9H0H5).
T1 sequence (Q9H0H5 whole entry): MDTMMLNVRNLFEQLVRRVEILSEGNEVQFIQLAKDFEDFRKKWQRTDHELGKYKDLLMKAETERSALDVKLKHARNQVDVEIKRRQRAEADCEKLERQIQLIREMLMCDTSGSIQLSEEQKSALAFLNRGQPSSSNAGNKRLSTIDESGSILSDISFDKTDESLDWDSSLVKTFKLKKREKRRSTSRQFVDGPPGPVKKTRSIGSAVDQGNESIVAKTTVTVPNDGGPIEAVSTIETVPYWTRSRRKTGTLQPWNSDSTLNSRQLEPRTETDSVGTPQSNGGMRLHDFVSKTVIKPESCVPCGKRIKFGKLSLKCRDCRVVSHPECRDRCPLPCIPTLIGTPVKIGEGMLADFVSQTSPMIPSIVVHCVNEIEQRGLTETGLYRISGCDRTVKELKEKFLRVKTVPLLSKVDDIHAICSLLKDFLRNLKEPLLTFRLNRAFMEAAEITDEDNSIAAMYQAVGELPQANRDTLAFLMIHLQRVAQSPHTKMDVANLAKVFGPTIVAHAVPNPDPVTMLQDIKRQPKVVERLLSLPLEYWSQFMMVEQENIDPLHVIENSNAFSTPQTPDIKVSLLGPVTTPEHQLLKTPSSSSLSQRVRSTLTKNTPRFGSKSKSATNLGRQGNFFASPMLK
As to the kind of experiment: MgcRacGAP GTPase-activating activity inhibitors, confirmation, biochemical, ADP Hunter fluorescence, primary and confirmatory (AID 624330). Format: functional.

Another assay concerns A549. As to the kind of experiment: A549 cell toxicity, dose response, cytotoxicity control, plate reader, cherry-pick samples (AID 687028). The format is functional, cell-based. The following applies: Homo sapiens.
In assay [5] the target is T2, Scavenger receptor class B member 1 (Mus musculus, UniProt Q61009).
T2 sequence (Q61009 whole entry): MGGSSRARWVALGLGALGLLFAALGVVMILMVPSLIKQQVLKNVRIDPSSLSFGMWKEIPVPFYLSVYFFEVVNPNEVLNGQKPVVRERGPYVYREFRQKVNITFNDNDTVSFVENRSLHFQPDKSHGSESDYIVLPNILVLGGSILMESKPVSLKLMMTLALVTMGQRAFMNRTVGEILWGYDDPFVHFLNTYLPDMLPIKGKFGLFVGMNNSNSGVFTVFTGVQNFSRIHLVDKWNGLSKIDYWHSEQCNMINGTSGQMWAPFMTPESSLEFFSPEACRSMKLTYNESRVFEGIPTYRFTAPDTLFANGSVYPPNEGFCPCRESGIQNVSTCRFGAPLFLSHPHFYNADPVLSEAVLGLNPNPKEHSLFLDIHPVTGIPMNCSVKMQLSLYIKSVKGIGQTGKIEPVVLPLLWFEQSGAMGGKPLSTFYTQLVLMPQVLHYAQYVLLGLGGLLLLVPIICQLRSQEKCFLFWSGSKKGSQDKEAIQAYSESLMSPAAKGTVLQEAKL
As to the kind of experiment: inhibitors of SR-BI dependent HDL uptake, dose response, ldlA[mSR-BI] CHO cells, fluorescence plate reader, dry powder, set 9 (AID 623880). The format is functional, cell-based.

Assay [6] addresses T2, Scavenger receptor class B member 1. As to the kind of experiment: inhibitors of SR-BI-mediated HDL uptake, dose response, cell-based, ldlA[mSR-BI] CHO, DiI fluorescence, dry powder, set 10 (AID 624029). Format: functional.

Chain of Broad substrate specificity ATP-binding cassette transporter ABCG2 (Q9UNQ0 whole entry): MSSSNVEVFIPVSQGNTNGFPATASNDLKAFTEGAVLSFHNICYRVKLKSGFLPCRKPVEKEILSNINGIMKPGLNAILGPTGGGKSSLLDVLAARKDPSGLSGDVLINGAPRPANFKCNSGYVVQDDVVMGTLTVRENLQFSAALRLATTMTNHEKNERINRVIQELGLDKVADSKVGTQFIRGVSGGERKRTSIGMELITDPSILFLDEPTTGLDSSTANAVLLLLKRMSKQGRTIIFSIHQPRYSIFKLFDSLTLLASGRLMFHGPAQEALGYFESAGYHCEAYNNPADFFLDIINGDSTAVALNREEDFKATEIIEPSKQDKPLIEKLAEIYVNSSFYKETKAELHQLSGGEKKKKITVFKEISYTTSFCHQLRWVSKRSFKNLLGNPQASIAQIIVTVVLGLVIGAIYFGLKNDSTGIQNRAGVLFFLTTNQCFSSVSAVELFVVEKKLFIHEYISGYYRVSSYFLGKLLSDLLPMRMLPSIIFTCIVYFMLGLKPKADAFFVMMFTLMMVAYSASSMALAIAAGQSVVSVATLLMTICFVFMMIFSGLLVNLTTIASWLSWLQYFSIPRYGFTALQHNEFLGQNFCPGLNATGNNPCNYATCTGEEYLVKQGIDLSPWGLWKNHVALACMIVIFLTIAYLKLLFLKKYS
Chain of Arf-GAP with SH3 domain, ANK repeat and PH domain-containing protein 1 (Q9ULH1 whole entry, the tested form may be a part): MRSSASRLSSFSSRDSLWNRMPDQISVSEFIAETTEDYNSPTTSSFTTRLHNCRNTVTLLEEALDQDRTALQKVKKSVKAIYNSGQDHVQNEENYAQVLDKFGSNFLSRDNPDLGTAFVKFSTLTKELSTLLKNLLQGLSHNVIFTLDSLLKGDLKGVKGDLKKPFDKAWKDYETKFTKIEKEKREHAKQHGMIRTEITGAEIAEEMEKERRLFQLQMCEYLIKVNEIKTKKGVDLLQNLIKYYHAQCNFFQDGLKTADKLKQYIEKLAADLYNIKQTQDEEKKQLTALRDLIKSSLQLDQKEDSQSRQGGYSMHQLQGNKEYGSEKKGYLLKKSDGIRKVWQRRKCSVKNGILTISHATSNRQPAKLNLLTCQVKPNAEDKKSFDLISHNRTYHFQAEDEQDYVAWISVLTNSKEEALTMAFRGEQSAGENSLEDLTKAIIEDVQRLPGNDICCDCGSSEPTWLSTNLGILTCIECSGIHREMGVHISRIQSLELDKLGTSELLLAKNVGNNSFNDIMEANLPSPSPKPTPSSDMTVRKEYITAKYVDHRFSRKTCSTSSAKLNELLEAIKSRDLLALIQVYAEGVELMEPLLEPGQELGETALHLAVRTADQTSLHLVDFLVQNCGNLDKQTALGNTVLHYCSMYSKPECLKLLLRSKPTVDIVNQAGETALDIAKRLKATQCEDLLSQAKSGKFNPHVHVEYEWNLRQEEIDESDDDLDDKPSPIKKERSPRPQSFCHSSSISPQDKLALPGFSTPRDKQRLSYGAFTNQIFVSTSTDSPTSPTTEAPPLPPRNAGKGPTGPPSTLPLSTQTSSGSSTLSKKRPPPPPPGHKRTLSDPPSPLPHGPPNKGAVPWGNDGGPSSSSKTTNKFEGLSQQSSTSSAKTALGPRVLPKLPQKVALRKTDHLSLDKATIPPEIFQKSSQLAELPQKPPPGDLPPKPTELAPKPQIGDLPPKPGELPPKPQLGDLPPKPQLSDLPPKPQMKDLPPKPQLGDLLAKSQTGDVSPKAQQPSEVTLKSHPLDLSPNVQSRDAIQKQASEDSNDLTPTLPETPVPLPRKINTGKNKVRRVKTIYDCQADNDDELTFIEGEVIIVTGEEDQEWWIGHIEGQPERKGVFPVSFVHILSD
Chain of ATP-dependent translocase ABCB1 (P08183 whole entry): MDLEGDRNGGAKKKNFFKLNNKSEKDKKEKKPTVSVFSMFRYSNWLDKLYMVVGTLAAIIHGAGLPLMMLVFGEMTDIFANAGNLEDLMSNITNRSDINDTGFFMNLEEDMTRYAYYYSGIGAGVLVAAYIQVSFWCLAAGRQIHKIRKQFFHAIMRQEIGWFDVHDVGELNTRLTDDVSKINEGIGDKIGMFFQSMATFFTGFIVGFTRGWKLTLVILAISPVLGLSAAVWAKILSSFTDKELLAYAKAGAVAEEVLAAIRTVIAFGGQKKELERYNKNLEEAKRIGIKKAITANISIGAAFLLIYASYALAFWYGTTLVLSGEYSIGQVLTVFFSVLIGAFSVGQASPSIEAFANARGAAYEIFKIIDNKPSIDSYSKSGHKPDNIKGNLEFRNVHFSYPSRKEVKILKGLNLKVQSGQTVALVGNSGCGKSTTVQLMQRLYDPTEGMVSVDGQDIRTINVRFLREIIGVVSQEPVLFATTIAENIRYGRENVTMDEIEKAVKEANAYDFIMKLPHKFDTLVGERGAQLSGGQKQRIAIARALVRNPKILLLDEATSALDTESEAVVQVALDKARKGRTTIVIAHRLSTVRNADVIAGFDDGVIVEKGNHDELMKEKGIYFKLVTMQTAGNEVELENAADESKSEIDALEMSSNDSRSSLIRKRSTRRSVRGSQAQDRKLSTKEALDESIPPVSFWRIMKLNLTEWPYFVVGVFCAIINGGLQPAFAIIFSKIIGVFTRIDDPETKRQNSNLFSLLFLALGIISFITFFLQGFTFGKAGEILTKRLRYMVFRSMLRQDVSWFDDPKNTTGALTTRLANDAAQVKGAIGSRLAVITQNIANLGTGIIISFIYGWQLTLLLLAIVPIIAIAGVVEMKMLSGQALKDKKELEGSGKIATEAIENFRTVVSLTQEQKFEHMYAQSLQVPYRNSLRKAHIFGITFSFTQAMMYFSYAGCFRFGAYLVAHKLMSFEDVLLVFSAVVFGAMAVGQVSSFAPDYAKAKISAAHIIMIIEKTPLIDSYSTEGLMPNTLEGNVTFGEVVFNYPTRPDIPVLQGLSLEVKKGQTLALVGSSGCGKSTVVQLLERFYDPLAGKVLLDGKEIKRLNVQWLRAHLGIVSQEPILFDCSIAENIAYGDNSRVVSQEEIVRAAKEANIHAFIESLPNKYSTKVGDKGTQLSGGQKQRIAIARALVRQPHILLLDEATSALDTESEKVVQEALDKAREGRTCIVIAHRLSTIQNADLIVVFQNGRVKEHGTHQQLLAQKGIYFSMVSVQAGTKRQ

Consider `CCOC(=O)NC(=S)Nc1ccc(C(C)(C)C)cc1Br`, for which the AC50 with Cryptococcus neoformans was > 70 µM (inactive); with HeLa it was > 52 µM (inactive); in the assay with HepG2 it was 18.1 µM (active).
With `COc1ccc(-n2nnc3c(=O)n(CC(=O)Nc4ccc5c(c4)OCCO5)cnc32)cc1OC`, the IC50 in assay [1] is 11.8 µM (inactive).
Regarding `COc1cc(C(=O)N/N=C/c2ccc(OC)c(CN3CCN(c4ccc(F)cc4)CC3)c2)ccc1O`, the EC50 in [2] was 0.165 µM (active); in assay [3], 0.76 µM (inactive). Further, the IC50 in [4] is 83.3 µM (active).
Regarding `COc1ccc2c3c([nH]c2c1)[C@H](CO)N(C(=O)c1ccccc1)CC31CN(S(=O)(=O)c2cccs2)C1`, the AC50 with A549 was 26 µM (active).
For `C[C@@H]1CN([C@H](C)CO)C(=O)c2cc(NC(=O)C3CCCCC3)ccc2O[C@H]1CN(C)S(=O)(=O)c1ccccc1Cl`, the AC50 in [5] is 0.176 µM (active); in [6], 0.202 µM (active).
